Data taken from ChEMBL document CHEMBL5380863 (J Med Chem, 2023).

Legend:
[1] = tested on: K562; experiment: cells; format: functional, cell-based; details: Homo sapiens, K562, 72 h
[2] = tested on: PC-3; experiment: cells; format: functional, cell-based; details: Homo sapiens, PC-3, 72 h
[3] = tested on: HL-60; experiment: cells; format: functional, cell-based; details: Homo sapiens, HL-60, 72 h
[4] = tested on: MCF7; experiment: cells; format: functional, cell-based; details: Homo sapiens, MCF7, 72 h
[5] = tested on: A549; experiment: cells; format: functional, cell-based; details: Homo sapiens, A549, 72 h
[6] = tested on: HEL; experiment: cells; format: functional, cell-based; details: Homo sapiens, 72 h
[7] = tested on: HeLa; experiment: cells; format: functional, cell-based; details: Homo sapiens, 72 h
[8] = target: T1, Tyrosine-protein kinase JAK2 (Homo sapiens, UniProt O60674)
[9] = target: T2, Tyrosine-protein kinase JAK1 (Homo sapiens, UniProt P23458); details: dose 500.0 nM
[10] = target: Histone deacetylase 2 (Homo sapiens, UniProt Q92769)
[11] = in vivo; details: Sprague-Dawley, rat, po, 15 mg/kg
[12] = target: Muscle, skeletal receptor tyrosine-protein kinase (Homo sapiens) (UniProt O15146); details: dose 500.0 nM
[13] = target: Tyrosine-protein kinase JAK3 (Homo sapiens, UniProt P52333)
[14] = in vivo; details: Sprague-Dawley, rat, po, 15 mg/kg; remark: listed apart in the source
[15] = target: Histone deacetylase 1 (Homo sapiens, UniProt Q13547); format: cell-based, HeLa
[16] = in vivo; details: Sprague-Dawley, rat, po, 15 mg/kg; remark: listed apart in the source
[17] = in vivo; details: Sprague-Dawley, rat, po, 15 mg/kg; remark: listed apart in the source
[18] = target: Histone deacetylase 7 (Homo sapiens, UniProt Q8WUI4)
[19] = target: Histone deacetylase 4 (Homo sapiens, UniProt P56524)
[20] = target: Polyamine deacetylase HDAC10 (Homo sapiens, UniProt Q969S8)
[21] = in vivo; details: Sprague-Dawley, rat, iv, 3 mg/kg
[22] = target: Activated CDC42 kinase 1 (Homo sapiens) (UniProt Q07912); details: dose 500.0 nM
[23] = in vivo; details: Sprague-Dawley, rat, iv, 3 mg/kg; remark: listed apart in the source
[24] = target: Tyrosine-protein kinase Fyn (Homo sapiens) (UniProt P06241); details: dose 500.0 nM
[25] = target: T2, Tyrosine-protein kinase JAK1
[26] = in vivo; details: Sprague-Dawley, rat, iv, 3 mg/kg; remark: listed apart in the source
[27] = in vitro; details: Sprague-Dawley, rat, plasma
[28] = target: Histone deacetylase 9 (Homo sapiens, UniProt Q9UKV0)
[29] = target: Non-receptor tyrosine-protein kinase TYK2 (Homo sapiens, UniProt P29597)
[30] = target: Histone deacetylase 8 (Homo sapiens, UniProt Q9BY41)
[31] = target: Histone deacetylase 5 (Homo sapiens, UniProt Q9UQL6)
[32] = rat, in vivo, po, 15 mg/kg, 24 h
[33] = target: Protein deacetylase HDAC6 (Homo sapiens, UniProt Q9UBN7)
[34] = target: Histone deacetylase; format: cell-based, Homo sapiens; details: hela
[35] = in vivo; details: Sprague-Dawley, rat, iv, 3 mg/kg; remark: listed apart in the source
[36] = target: T1, Tyrosine-protein kinase JAK2; details: dose 500.0 nM
[37] = target: Histone deacetylase 11 (Homo sapiens, UniProt Q96DB2)
[38] = in vivo; details: Sprague-Dawley, rat, iv, 3 mg/kg; remark: listed apart in the source
[39] = in vivo; details: Sprague-Dawley, rat, po, 15 mg/kg; remark: listed apart in the source
[40] = in vitro; details: Sprague-Dawley, rat, plasma; remark: listed apart in the source
[41] = in vivo; details: Sprague-Dawley, rat, po, 15 mg/kg; remark: listed apart in the source
[42] = target: Histone deacetylase 3 (Homo sapiens, UniProt O15379)
[43] = in vivo; details: Sprague-Dawley, rat, po, 15 mg/kg; remark: listed apart in the source

T2 sequence (P23458 whole entry): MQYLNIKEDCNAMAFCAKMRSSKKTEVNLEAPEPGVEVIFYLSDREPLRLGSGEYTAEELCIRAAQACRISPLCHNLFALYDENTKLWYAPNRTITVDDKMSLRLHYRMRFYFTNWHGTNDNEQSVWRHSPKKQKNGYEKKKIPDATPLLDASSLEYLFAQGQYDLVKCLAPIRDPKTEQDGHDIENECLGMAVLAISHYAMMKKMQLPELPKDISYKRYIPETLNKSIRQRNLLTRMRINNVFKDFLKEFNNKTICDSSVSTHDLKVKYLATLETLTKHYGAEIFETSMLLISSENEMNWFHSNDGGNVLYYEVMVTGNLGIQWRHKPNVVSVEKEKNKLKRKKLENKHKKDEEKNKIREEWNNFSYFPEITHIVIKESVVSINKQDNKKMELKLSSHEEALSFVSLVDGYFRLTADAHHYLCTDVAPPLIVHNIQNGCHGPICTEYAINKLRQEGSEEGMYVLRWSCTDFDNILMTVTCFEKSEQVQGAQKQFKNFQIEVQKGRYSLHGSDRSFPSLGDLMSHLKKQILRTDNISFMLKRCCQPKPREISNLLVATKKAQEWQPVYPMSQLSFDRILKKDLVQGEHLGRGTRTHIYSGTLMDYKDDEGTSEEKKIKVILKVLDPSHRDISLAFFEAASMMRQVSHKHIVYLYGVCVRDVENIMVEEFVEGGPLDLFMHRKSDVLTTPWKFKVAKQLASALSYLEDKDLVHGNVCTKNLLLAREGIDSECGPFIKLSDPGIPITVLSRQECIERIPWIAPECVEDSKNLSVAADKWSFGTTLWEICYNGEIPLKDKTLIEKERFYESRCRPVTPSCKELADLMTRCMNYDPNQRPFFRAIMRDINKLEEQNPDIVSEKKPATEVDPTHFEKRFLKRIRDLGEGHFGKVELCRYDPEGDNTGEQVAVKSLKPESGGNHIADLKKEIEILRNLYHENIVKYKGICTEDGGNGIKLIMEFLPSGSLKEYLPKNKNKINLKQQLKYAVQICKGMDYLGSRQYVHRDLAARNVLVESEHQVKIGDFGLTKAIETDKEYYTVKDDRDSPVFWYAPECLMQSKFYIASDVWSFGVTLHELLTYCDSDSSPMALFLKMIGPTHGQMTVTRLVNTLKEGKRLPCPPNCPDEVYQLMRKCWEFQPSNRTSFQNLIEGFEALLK
T1 sequence (O60674 whole entry): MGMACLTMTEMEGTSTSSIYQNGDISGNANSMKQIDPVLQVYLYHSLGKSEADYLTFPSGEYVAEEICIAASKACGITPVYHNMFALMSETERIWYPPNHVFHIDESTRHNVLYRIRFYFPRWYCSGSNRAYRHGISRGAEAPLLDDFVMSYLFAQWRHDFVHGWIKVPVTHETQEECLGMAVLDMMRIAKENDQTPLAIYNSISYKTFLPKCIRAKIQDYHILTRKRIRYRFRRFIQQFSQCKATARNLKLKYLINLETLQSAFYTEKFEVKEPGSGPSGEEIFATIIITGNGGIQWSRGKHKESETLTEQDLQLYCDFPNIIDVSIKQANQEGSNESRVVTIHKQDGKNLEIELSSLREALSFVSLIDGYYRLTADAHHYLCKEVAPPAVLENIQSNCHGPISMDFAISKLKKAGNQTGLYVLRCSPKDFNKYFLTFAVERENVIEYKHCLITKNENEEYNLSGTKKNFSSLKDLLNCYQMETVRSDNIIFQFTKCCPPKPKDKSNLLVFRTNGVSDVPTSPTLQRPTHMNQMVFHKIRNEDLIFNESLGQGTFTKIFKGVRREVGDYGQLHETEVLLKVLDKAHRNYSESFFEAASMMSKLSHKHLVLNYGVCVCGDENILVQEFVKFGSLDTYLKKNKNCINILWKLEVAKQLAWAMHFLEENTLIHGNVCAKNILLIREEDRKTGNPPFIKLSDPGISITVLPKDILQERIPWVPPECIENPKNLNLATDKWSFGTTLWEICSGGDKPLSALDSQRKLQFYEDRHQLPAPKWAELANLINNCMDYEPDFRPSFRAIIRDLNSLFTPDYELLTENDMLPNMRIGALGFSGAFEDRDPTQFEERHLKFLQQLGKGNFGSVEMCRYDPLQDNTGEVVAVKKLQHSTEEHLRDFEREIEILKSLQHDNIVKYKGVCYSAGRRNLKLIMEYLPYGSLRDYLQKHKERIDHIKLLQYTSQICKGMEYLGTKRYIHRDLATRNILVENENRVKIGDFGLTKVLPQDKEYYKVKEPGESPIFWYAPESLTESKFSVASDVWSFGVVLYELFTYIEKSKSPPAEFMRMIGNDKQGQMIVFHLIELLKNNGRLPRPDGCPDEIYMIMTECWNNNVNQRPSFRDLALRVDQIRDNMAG
Chain of Protein deacetylase HDAC6 (Q9UBN7 whole entry): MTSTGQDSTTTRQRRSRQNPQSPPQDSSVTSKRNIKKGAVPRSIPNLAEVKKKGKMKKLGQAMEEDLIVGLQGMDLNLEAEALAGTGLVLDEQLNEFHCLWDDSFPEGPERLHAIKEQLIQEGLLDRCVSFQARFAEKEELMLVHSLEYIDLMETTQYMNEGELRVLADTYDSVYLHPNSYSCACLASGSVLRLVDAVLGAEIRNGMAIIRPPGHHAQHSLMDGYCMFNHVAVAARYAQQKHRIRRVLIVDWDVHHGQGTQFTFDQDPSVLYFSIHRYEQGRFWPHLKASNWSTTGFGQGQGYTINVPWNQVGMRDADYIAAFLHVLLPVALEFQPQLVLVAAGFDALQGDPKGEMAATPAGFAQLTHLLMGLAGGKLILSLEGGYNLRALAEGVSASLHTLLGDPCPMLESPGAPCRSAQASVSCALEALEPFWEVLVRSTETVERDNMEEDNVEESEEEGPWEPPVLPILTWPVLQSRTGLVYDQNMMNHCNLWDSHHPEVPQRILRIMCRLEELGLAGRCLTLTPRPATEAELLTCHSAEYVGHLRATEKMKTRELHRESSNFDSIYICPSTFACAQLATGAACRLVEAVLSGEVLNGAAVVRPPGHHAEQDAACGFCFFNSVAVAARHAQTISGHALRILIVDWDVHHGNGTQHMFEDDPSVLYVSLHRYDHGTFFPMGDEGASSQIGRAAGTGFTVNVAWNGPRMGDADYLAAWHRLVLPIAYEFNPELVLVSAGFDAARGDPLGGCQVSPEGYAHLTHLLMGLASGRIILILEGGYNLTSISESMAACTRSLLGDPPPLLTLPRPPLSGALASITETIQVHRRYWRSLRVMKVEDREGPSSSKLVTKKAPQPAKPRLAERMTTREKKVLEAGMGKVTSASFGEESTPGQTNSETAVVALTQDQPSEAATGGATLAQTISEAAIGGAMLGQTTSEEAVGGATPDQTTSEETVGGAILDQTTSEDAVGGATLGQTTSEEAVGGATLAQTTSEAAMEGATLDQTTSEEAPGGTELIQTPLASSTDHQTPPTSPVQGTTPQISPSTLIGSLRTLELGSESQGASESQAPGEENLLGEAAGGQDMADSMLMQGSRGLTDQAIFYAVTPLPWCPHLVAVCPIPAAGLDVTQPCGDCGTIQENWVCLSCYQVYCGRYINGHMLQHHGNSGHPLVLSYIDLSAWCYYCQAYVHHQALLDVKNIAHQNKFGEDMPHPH
Chain of Tyrosine-protein kinase JAK3 (P52333 whole entry): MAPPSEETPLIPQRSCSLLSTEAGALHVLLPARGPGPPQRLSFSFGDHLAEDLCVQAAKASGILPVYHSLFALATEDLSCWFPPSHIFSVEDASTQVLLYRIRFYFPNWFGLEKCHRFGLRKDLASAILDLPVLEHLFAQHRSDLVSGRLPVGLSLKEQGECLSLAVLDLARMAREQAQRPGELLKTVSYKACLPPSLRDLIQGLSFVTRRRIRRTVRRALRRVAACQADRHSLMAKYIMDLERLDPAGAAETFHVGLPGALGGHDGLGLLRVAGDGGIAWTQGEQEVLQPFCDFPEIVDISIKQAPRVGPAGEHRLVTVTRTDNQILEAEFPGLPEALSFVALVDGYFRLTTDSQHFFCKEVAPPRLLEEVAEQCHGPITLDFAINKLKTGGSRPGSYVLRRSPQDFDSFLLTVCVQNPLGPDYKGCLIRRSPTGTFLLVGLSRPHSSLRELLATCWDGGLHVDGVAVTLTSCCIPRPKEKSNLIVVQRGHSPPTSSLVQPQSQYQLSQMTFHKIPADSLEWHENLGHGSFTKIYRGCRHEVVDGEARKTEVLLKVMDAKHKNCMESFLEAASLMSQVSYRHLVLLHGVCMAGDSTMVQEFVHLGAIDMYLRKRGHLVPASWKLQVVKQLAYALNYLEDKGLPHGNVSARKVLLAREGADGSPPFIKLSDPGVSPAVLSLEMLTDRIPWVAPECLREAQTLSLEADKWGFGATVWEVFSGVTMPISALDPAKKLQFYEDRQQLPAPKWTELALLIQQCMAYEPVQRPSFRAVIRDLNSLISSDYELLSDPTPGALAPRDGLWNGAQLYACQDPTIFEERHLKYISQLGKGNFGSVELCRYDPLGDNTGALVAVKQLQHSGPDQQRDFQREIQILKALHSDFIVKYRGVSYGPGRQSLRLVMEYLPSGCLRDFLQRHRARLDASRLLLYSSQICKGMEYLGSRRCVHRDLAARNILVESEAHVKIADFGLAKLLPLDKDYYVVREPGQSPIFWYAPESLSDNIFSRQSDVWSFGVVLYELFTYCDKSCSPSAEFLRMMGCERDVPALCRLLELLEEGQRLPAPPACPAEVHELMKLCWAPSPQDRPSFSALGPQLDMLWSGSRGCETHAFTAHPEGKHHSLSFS
Chain of Histone deacetylase 2 (Q92769 whole entry): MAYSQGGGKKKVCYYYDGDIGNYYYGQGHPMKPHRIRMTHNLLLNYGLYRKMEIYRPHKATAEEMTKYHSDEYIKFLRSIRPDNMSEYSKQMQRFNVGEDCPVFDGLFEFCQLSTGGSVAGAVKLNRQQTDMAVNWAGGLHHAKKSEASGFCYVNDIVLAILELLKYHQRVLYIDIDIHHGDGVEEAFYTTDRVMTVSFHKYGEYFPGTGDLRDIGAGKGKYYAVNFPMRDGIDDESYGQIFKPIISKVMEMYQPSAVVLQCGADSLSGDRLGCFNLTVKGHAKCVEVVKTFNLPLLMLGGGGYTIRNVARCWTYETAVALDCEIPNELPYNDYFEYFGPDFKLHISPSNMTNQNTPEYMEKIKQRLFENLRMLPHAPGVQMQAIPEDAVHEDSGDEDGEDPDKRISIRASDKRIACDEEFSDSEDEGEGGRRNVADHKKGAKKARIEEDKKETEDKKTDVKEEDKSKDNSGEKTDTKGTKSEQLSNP

## Cc1cnc(Nc2ccc(OCCCCCCC(=O)NO)c(Br)c2)nc1Nc1cccc(S(=O)(=O)NC(C)(C)C)c1
[1]
  IC50: 2070 nM
[2]
  IC50: 3870 nM
[3]
  IC50: 12000 nM
[4]
  IC50: 6950 nM
[5]
  IC50: 2160 nM
[6]
  IC50: 730 nM
[7]
  IC50: 11900 nM

## Cc1cnc(Nc2ccc(OCCCCCC(=O)NO)cc2)nc1Nc1cccc(S(=O)(=O)NC(C)(C)C)c1
[1]
  IC50: 4220 nM
[2]
  IC50: 2760 nM
[3]
  IC50: 2580 nM
[4]
  IC50: 3220 nM
[5]
  IC50: 2330 nM
[6]
  IC50: 2520 nM
[7]
  IC50: 3960 nM

## Cc1cnc(Nc2ccc(OCC(=O)NO)cc2)nc1Nc1cccc(S(=O)(=O)NC(C)(C)C)c1
[8]
  IC50: 4.33 nM

## Cc1cnc(Nc2ccc(OCCCCCC(=O)NO)c(C(F)(F)F)c2)nc1Nc1cccc(S(=O)(=O)NC(C)(C)C)c1
[1]
  IC50: 3450 nM
[2]
  IC50: 2870 nM
[3]
  IC50: 6850 nM
[4]
  IC50: 2930 nM
[5]
  IC50: 2910 nM
[6]
  IC50: 2440 nM
[7]
  IC50: 5100 nM

## Cc1cnc(Nc2ccc(OCCCCCCC(=O)NO)cc2)nc1Nc1cccc(S(=O)(=O)NC(C)(C)C)c1
[9]
  inhibition: 80%
[10]
  IC50: 303 nM
[11]
  AUC(0-t) at 24 h: 745 ng·h/mL
[12]
  inhibition: 70%
[13]
  IC50: 595 nM
[14]
  Tmax at 24 h: 2.91 h
[1]
  IC50: 1870 nM
[15]
  IC50: 0.34 nM
[16]
  bioavailability at 24 h: 22.7%
[2]
  IC50: 2520 nM
[3]
  IC50: 2580 nM
[17]
  half-life at 24 h: 2.08 h
[18]
  IC50: > 10000 nM
[19]
  IC50: > 10000 nM
[4]
  IC50: 1830 nM
[20]
  IC50: 116 nM
[21]
  MRT at 24 h: 0.185 h
[22]
  inhibition: 70%
[23]
  Vd at 24 h: 0.845 L/kg
[24]
  inhibition: > 95%
[25]
  IC50: 27.1 nM
[5]
  IC50: 730 nM
[26]
  half-life at 24 h: 7.68 min
[27]
  AUC(0-t) at 22 h: 217000 ng·h/mL
[28]
  IC50: > 10000 nM
[6]
  IC50: 330 nM
[29]
  IC50: 414 nM
[7]
  IC50: 2880 nM
[30]
  IC50: > 10000 nM
[31]
  IC50: > 10000 nM
[32]
  Vd: 13.708 L/kg
[33]
  IC50: 4.44 nM
[34]
  IC50: 0.17 nM
[35]
  AUC(0-t) at 24 h: 656 ng·h/mL
[36]
  inhibition: > 95%
[37]
  IC50: 724 nM
[38]
  clearance at 24 h: 76.2 mL/min/kg
[39]
  Cmax at 24 h: 93.3 ng/mL
[40]
  half-life at 22 h: 11.1 h
[41]
  MRT at 24 h: 6.02 h
[42]
  IC50: 58.7 nM
[43]
  CL/F at 24 h: 76 mL/min/kg

## Cc1cnc(Nc2ccc(OCCCCCCC(=O)NO)c(C(F)(F)F)c2)nc1Nc1cccc(S(=O)(=O)NC(C)(C)C)c1
[1]
  IC50: 5900 nM
[2]
  IC50: 4870 nM
[3]
  IC50: 11100 nM
[4]
  IC50: 8720 nM
[5]
  IC50: 2240 nM
[6]
  IC50: 1080 nM
[7]
  IC50: 7480 nM

## Cc1cnc(Nc2ccc(OCCCCCC(=O)NO)c(Cl)c2)nc1Nc1cccc(S(=O)(=O)NC(C)(C)C)c1
[1]
  IC50: 4370 nM
[2]
  IC50: 6290 nM
[3]
  IC50: 6700 nM
[4]
  IC50: 4840 nM
[5]
  IC50: 2030 nM
[6]
  IC50: 1270 nM
[7]
  IC50: 7230 nM
